In patent EP0851766B1, “METHOD FOR ANALYZING THE IMMUNOS[…] OF ION CHANNEL BLOCKERS USING THE MINI-PIG” (MERCK & CO., INC., priority 1995, dated 1997):
Where two headings read alike, the source gives them in different places.

Legend:
[1] = tested on: mixed lymphocyte reaction; assay: Mixed lymphocyte reaction (pig); assay type: cell-based
Source text: Mini-swine was recently selected to validate the concept that blocking the voltage activated K+ channels (Kv1.3) is a target for immunomodulation.

pig mononuclear cells = assay: In vitro PMA/ionomycin induced proliferation of mononuclear cells ([3H]thymidine incorporation); assay type: cell-based
mononuclear cells = assay: Ex vivo PMA/ionomycin-induced proliferation of mononuclear cells after in vivo infusion; design: species or system Yucatan mini-pig; conditions: 25 µg in 30 ml of vehicle infused over 2.5 h
[2] = Blood pressure and heart rate during infusion; assay type: in vivo, Yucatan mini-pig; conditions: during infusion of 25 µg over 2.5 h
Procedure: A Yucatan mini-pig received 25 µg of margatoxin in 30 ml of vehicle (5% autologous serum in 1:1 saline to PBS solution) over 2.5 h. […] Margatoxin was undetectable in the plasma in 24 h. Plasma level of MgTX was determined in a competition binding assay, by its inhibition of ^125I-labeled MgTX binding to Kv1.3 channels present in isolated plasma membranes. […] Similar pharmokinetic study was performed six times, with good correlations between high plasma levels of margatoxin and the lower response to PMA/ION. Yucatan mini-pigs receiving vehicle had no significant fluctuation of responses to PMA/ION. Therefore, this ex vivo test provides an assessment of the in vivo biological effect of margatoxin and can also be used to study the immunosuppressant effects of other ion channel blockers.

[3] = tested on: mixed lymphocyte reaction; conditions: mouse; cited from earlier work
[4] = 25 µg infused over 2.5 h
[5] = tested on: mixed lymphocyte reaction; conditions: rat; cited from earlier work
[6] = tested on: mixed lymphocyte reaction; conditions: rabbit; cited from earlier work
[7] = tested on: mixed lymphocyte reaction; conditions: guinea pig; cited from earlier work
[8] = molecular target: T1, Kv1.3 channels of the pig T cells (Sus scrofa, UniProt A0A5G2QN06); conditions: electrophysiological analyses, unpublished communication from Reid Leonard; cited from earlier work
T1 construct: endogenous in cells; host or cells: pig T cells
T1 sequence (A0A5G2QN06 1-588): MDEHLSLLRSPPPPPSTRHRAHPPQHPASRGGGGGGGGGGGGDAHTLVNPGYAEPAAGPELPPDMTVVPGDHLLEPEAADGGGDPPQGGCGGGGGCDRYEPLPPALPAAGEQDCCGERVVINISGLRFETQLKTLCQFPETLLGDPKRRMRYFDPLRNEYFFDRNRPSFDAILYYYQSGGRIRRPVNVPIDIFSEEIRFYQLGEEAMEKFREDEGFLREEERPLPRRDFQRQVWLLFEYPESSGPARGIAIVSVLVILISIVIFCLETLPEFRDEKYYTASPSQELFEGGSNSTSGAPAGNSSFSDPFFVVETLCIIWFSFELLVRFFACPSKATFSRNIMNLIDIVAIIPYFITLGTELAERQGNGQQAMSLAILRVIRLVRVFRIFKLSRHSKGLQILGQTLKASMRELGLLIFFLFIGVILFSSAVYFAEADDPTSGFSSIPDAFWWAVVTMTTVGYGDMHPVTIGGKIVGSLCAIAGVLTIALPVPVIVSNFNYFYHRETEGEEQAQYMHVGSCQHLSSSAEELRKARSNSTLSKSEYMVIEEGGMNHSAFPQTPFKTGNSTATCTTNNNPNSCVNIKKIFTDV

Margatoxin
inhibition of the mixed lymphocyte reaction [1]: inhibit | PMA/ionomycin (ION) induced proliferation (pig mononuclear cells; pig mononuclear cells, in vitro): equally inhibited | suppression of the proliferative response to PMA/ION (pig mononuclear cells; whole blood spiked with Margatoxin): significant suppression | Unresponsiveness to PMA/ION, duration sustained post-infusion (mononuclear cells): 4.5 h | Unresponsiveness to PMA/ION, time of maximum (mononuclear cells): maximal at the end of infusion | rise in blood pressure [2]: no significant rise | rise in heart rate [2]: no significant rise | inhibition of the mixed lymphocyte reaction [3]: not inhibited | Plasma level ([4]; in 24 h): undetectable | half-life ([4]; plasma): about 2 h | Cmax ([4]; read-out: Plasma level, peak, at the end of infusion): 0.6 nM | concentration ([4]; read-out: Plasma level, at 4.5 h post-infusion): 0.1 nM | inhibition of the mixed lymphocyte reaction [5]: not inhibited | inhibition of the mixed lymphocyte reaction [6]: not inhibited | inhibition of the mixed lymphocyte reaction [7]: not inhibited | block of the Kv1.3 channels [8]: block
